Earlier results in patent US4873092A, “Slow-releasing preparation” (Murata Kikai Kabushiki Kaisha, priority 1987, dated 1989).

Conditions: mouce

SMILES: COc1cccc2c1C(=O)c1c(O)c3c(c(O)c1C2=O)C[C@@](O)(C(=O)CO)C[C@@H]3O[C@H]1C[C@H](N)[C@H](O)[C@H](C)O1 [Adriamycin]
- LD50 value: 9.8 mg/kg
